Source: ChEMBL document CHEMBL1743201, “Casarett and Doull's Toxicology The Basic Science of Poisons, 7th edition” (2008)
Each block holds one compound with its values, some of them ahead of it.

What was measured:
Sulfotransferase 1A3 = Sulfotransferase 1A3 (Homo sapiens, UniProt P0DMM9); assay: Major substrate of human cytosolic sulfotransferase SULT1A3; format: ADME
Sulfotransferase 1A1 = Sulfotransferase 1A1 (Homo sapiens, UniProt P50225); assay: Major substrate of human cytosolic sulfotransferase SULT1A1; format: ADME
[1] = target: T1, UDP-glucuronosyltransferase 1A6 (Homo sapiens, UniProt P19224); assay: Substrate of human UDP-glucuronosyltransferase UGT1A6; format: ADME
T1 sequence (P19224 whole entry): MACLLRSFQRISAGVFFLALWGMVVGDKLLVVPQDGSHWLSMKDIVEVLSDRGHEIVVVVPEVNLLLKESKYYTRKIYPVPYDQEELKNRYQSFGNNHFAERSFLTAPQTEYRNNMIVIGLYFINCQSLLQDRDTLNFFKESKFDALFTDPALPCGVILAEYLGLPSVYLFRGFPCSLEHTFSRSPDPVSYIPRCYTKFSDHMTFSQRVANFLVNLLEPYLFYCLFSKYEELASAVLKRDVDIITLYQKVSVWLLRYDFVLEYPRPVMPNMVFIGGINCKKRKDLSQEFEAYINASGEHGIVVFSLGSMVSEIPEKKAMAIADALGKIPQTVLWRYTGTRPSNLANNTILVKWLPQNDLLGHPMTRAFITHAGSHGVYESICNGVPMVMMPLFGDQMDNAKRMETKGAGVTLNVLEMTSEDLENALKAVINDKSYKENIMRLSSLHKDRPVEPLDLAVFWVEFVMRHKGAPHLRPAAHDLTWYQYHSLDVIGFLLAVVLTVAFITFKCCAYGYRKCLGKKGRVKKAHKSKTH

Sulfotransferase 1C4 = Sulfotransferase 1C4 (Homo sapiens, UniProt O75897); assay: Major substrate of human cytosolic sulfotransferase SULT1C4; format: ADME
Sulfotransferase 1B1 = Sulfotransferase 1B1 (Homo sapiens, UniProt O43704); assay: Major substrate of human cytosolic sulfotransferase SULT1B1; format: ADME
Cytochrome P450 2E1 [2] = target: T2, Cytochrome P450 2E1 (Homo sapiens, UniProt P05181); assay: Clinically relevant substrates of human liver microsomal P450 enzymes, isoform CYP2E1; format: ADME; conditions: microsomes
Sulfotransferase 4A1 = target: T3, Sulfotransferase 4A1 (Homo sapiens, UniProt Q9BR01); assay: Major substrate of human cytosolic sulfotransferase SULT4A1_v1; format: ADME
T3 sequence (Q9BR01 whole entry): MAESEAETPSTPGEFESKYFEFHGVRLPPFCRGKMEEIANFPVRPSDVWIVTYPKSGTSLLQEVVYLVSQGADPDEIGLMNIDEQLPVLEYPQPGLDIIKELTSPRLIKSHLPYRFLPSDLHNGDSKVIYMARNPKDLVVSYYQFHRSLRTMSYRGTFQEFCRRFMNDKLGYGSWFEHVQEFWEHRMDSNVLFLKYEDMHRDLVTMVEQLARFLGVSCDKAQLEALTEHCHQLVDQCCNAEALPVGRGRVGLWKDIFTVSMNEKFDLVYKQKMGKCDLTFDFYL

Sulfotransferase 1C2 = Sulfotransferase 1C2 (Homo sapiens, UniProt O00338); assay: Major substrate of human cytosolic sulfotransferase SULT1C2; format: ADME
Sulfotransferase 1A2 = Sulfotransferase 1A2 (Homo sapiens, UniProt P50226); assay: Major substrate of human cytosolic sulfotransferase SULT1A2; format: ADME
Cytochrome P450 1A2 = target: T4, Cytochrome P450 1A2 (Homo sapiens, UniProt P05177); assay: Clinically relevant inducers of human liver microsomal P450 enzymes, isoform CYP1A2; format: ADME; conditions: microsomes
T4 sequence (P05177 whole entry): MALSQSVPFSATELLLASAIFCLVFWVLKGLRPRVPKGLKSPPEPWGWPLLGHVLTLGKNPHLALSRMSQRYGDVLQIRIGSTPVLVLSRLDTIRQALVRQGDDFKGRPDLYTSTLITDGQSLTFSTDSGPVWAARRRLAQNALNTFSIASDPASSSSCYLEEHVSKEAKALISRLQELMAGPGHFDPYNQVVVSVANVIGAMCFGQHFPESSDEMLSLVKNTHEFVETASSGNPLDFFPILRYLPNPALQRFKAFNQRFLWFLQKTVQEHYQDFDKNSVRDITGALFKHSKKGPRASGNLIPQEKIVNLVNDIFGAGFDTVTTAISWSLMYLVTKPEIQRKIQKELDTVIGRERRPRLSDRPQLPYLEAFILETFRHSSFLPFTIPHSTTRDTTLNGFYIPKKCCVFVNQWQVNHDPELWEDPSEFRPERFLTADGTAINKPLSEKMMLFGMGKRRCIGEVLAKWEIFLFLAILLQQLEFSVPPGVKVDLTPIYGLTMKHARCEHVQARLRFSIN

[3] = target: T5, Aryl hydrocarbon receptor (Homo sapiens, UniProt P35869); assay: Aryl hydrocarbon receptor agonist (species not specified)
T5 sequence (P35869 whole entry): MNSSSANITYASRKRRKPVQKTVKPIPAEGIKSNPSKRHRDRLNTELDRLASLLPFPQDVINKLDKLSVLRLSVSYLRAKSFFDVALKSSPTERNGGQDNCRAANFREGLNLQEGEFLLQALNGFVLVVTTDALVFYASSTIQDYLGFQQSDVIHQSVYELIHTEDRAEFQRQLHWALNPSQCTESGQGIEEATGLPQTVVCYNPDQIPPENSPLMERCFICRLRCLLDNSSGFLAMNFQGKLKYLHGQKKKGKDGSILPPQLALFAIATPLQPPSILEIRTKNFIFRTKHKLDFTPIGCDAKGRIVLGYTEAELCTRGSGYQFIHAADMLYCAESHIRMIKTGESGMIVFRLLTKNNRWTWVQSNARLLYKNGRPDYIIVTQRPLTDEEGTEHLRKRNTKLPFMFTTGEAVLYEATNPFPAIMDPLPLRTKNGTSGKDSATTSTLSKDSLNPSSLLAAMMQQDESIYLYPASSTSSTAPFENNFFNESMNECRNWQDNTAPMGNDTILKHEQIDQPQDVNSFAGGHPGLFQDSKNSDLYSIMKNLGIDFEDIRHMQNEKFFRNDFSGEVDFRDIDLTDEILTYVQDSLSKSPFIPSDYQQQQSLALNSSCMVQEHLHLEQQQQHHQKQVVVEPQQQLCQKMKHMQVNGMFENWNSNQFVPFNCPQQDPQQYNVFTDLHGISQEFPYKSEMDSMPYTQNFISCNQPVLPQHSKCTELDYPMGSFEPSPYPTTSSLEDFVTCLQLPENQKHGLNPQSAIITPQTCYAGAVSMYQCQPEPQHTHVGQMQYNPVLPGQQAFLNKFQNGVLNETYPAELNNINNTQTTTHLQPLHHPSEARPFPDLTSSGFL

Cytochrome P450 2A6 [4] = target: T6, Cytochrome P450 2A6 (Homo sapiens, UniProt P11509); assay: Clinically relevant substrates of human liver microsomal P450 enzymes, isoform CYP2A6; format: ADME; conditions: microsomes
T6 sequence (P11509 whole entry): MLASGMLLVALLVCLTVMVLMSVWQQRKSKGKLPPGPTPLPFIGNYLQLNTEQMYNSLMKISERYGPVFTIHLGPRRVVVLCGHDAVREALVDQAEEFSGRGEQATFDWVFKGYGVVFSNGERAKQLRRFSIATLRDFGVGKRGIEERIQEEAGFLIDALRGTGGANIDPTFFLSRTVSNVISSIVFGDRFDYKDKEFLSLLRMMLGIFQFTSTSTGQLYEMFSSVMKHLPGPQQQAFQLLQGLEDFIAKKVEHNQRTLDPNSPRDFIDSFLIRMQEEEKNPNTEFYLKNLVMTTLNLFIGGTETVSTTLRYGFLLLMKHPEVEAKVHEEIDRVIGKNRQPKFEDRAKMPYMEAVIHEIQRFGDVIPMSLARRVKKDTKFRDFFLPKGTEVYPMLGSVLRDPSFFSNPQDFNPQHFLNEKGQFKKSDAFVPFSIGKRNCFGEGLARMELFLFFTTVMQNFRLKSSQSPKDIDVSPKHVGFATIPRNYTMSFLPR

Cytochrome P450 2B6 = target: T7, Cytochrome P450 2B6 (Homo sapiens, UniProt P20813); assay: Clinically relevant inducers of human liver microsomal P450 enzymes, isoform CYP2B6; format: ADME; conditions: microsomes
T7 sequence (P20813 whole entry): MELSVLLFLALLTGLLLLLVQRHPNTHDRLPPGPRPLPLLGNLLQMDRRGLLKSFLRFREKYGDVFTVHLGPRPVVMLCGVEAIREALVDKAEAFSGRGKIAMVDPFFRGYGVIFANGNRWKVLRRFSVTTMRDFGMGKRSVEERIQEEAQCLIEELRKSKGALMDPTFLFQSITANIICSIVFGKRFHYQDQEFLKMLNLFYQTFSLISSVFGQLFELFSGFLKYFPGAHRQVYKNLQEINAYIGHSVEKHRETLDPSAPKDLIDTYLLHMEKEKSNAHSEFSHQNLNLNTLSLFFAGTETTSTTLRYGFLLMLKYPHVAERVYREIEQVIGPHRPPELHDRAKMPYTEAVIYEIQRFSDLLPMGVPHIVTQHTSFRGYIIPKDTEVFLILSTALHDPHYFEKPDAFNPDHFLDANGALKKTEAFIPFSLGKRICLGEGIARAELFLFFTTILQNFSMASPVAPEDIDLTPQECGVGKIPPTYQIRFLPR

Cytochrome P450 2C8 = target: T8, Cytochrome P450 2C8 (Homo sapiens, UniProt P10632); assay: Clinically relevant inducers of human liver microsomal P450 enzymes, isoform CYP2C8; format: ADME; conditions: microsomes
T8 sequence (P10632 whole entry): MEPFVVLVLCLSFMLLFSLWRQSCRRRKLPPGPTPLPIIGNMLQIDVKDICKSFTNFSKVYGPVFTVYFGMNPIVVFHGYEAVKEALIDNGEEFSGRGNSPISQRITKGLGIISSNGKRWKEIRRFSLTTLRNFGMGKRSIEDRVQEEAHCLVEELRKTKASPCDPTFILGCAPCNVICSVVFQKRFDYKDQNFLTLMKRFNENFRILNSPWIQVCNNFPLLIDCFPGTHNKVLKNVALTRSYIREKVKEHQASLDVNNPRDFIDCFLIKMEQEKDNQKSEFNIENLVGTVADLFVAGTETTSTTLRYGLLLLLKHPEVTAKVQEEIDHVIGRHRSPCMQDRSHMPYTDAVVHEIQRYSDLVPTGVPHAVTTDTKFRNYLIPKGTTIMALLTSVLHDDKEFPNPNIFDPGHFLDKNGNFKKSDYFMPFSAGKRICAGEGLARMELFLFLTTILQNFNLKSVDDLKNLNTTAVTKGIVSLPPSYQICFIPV

Cytochrome P450 2C19 [5] = target: T9, Cytochrome P450 2C19 (Homo sapiens, UniProt P33261); assay: Clinically relevant inducers of human liver microsomal P450 enzymes, isoform CYP2C19; format: ADME; conditions: microsomes
Cytochrome P450 2E1 [6] = target: T2, Cytochrome P450 2E1; assay: Clinically relevant inducers of human liver microsomal P450 enzymes, isoform CYP2E1; format: ADME; conditions: microsomes
[7] = target: T5, Aryl hydrocarbon receptor; assay: Aryl hydrocarbon receptor antagonist (species not specified)
Cytochrome P450 2C19 [8] = target: T9, Cytochrome P450 2C19; assay: Clinically relevant substrates of human liver microsomal P450 enzymes, isoform CYP2C19; format: ADME; conditions: microsomes
Cytochrome P450 2A6 [9] = target: T6, Cytochrome P450 2A6; assay: Clinically relevant inducers of human liver microsomal P450 enzymes, isoform CYP2A6; format: ADME; conditions: microsomes

T2 sequence (P05181 whole entry, canonical isoform): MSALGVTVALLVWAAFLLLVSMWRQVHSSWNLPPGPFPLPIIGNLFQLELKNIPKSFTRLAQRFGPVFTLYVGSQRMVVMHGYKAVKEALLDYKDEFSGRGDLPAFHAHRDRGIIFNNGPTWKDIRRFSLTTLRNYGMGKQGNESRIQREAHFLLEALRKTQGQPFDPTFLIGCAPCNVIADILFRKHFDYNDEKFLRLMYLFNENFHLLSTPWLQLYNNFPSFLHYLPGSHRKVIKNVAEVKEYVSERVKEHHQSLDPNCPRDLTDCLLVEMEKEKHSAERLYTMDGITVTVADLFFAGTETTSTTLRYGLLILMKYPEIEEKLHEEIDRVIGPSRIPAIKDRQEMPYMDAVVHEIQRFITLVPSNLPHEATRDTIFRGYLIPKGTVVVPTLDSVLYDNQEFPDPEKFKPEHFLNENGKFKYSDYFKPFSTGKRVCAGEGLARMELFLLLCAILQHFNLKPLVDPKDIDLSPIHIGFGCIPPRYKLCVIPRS
T9 sequence (P33261 whole entry, canonical isoform): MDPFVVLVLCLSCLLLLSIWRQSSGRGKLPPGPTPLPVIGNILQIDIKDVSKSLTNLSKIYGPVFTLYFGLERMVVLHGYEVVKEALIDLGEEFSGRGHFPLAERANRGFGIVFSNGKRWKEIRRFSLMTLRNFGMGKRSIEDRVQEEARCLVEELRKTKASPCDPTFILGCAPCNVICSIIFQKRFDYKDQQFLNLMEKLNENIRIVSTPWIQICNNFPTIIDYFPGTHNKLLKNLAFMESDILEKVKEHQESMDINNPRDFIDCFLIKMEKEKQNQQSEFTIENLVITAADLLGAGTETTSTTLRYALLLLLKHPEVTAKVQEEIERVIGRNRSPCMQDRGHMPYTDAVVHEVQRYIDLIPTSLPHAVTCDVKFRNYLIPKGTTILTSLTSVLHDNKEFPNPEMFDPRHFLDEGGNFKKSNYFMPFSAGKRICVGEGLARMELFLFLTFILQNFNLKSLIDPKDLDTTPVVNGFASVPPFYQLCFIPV
Sequence of Sulfotransferase 1A2 (P50226 whole entry, canonical isoform): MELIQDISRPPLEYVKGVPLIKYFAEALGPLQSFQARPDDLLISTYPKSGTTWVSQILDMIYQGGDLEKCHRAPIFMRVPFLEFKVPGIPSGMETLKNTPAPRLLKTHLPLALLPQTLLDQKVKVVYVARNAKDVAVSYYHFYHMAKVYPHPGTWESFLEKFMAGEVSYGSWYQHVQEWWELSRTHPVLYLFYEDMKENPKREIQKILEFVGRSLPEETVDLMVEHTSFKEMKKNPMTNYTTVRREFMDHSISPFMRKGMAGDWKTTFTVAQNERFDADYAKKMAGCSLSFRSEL
Sequence of Sulfotransferase 1C4 (O75897 whole entry): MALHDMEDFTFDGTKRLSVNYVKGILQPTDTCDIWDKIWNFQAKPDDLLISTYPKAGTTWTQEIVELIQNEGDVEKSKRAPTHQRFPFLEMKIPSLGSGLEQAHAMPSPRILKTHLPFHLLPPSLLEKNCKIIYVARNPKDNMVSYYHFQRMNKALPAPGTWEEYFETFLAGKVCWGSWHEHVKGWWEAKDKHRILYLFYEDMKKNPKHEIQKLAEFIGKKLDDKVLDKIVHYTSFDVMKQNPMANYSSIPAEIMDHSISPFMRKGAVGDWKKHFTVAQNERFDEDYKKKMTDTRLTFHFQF
Sequence of Sulfotransferase 1C2 (O00338 whole entry): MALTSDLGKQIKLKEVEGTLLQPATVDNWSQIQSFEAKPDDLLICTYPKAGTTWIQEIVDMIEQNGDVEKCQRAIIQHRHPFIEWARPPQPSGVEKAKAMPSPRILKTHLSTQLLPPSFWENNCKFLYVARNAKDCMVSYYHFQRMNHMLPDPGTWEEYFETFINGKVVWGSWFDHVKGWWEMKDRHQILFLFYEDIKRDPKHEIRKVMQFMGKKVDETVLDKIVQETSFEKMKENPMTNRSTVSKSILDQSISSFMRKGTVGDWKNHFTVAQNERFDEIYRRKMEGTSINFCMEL
Sequence of Sulfotransferase 1B1 (O43704 whole entry, canonical isoform): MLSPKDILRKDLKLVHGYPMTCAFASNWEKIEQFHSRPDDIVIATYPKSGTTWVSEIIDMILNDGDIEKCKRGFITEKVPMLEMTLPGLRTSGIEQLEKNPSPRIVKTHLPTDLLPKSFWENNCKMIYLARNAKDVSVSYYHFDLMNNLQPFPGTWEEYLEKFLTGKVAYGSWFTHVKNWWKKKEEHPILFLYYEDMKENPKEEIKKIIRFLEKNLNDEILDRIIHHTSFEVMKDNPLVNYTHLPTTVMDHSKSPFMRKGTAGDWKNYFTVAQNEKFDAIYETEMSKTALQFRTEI
Sequence of Sulfotransferase 1A3 (P0DMM9 whole entry): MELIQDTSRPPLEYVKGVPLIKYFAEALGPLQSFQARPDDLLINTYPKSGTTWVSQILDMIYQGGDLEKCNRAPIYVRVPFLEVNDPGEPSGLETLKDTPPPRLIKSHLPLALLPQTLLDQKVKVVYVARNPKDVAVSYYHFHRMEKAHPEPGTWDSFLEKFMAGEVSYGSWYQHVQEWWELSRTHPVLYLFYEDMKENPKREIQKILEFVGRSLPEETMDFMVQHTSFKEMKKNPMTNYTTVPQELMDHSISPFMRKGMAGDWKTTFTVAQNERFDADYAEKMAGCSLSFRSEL
Sequence of Sulfotransferase 1A1 (P50225 whole entry): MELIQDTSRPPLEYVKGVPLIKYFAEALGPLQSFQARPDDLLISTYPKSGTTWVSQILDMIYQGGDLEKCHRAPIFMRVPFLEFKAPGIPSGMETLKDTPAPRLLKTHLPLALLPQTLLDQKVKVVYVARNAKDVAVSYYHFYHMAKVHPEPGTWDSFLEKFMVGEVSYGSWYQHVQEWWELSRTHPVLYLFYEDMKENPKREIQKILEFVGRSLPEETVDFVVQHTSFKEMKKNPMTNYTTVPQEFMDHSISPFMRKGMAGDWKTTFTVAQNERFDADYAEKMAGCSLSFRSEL

SMILES: O=[N+]([O-])c1ccc(O)cc1 [P-NITROPHENOL]
- Activity (Sulfotransferase 1A3): Substrate
- Activity (Sulfotransferase 1A1): Substrate
- Activity [1]: Substrate
- Activity (Sulfotransferase 1C4): Substrate
- Activity (Sulfotransferase 1B1): Substrate
- Activity (Cytochrome P450 2E1 [2]): Substrate
- Activity (Sulfotransferase 4A1): Substrate
- Activity (Sulfotransferase 1C2): Substrate
- Activity (Sulfotransferase 1A2): Substrate

SMILES: Clc1cc2c(cc1Cl)Oc1cc(Cl)c(Cl)cc1O2 [2,3,7,8-TETRACHLORODIBENZO-P-DIOXIN]
- Activity (Cytochrome P450 1A2): Inducer
- Activity [3]: agonist

SMILES: CN1CCC[C@H]1c1cccnc1 [NICOTINE]
- Activity (Cytochrome P450 2A6 [4]): Substrate

SMILES: Cc1ccccc1/N=N/c1ccc(NC(=O)c2ccnn2C)c(C)c1
- Activity [7]: antagonist

SMILES: CC(=O)N(O)c1ccc2c(c1)Cc1ccccc1-2
- Activity (Sulfotransferase 1C4): Substrate
- Activity (Sulfotransferase 1C2): Substrate
- Activity (Sulfotransferase 1A2): Substrate

The remaining lines, values ahead:

- Activity (Cytochrome P450 2B6): Inducer
- Activity (Cytochrome P450 2C8): Inducer
- Activity (Cytochrome P450 2C19 [5]): Inducer
SMILES: CO[C@H]1/C=C/O[C@@]2(C)Oc3c(C)c(O)c4c(O)c(c(/C=N/N5CCN(C)CC5)c(O)c4c3C2=O)NC(=O)/C(C)=C\C=C\[C@H](C)[C@H](O)[C@@H](C)[C@@H](O)[C@@H](C)[C@H](OC(C)=O)[C@@H]1C [RIFAMPIN]

- Activity (Cytochrome P450 2A6 [4]): Substrate
SMILES: O=c1ccc2ccccc2o1 [COUMARIN]

- Activity (Cytochrome P450 2E1 [6]): Inducer
SMILES: CCO [ALCOHOL]

- Activity [7]: antagonist
SMILES: COc1ccc2[nH]c(SCc3ncc(C)c(OC)c3C)nc2c1 [UFIPRAZOLE]

- Activity (Cytochrome P450 2E1 [6]): Inducer
SMILES: NNC(=O)c1ccncc1 [ISONIAZID]

- Activity (Cytochrome P450 1A2): Inducer
- Activity (Cytochrome P450 2C19 [8]): Substrate
- Activity [3]: agonist
SMILES: COc1ccc2[nH]c([S+]([O-])Cc3ncc(C)c(OC)c3C)nc2c1 (stereo not drawn) [OMEPRAZOLE]

- Activity (Cytochrome P450 2A6 [9]): Inducer
SMILES: C[C@@H]1C[C@H]2[C@@H]3CCC4=CC(=O)C=C[C@]4(C)[C@@]3(F)[C@@H](O)C[C@]2(C)[C@@]1(O)C(=O)CO [DEXAMETHASONE]

- Activity (Cytochrome P450 2A6 [9]): Inducer
SMILES: c1cn[nH]c1 [PYRAZOLE]
